“Also recorded” adds a separate entry of the source.
Tests used:
[1] = tested on: reinforcing effects of methamphetamine; settings: rat self-administration model; Munzar et al., 2004; cited from earlier work
cocaine craving = test: Extinction phase: cocaine craving (lever pressing with drug no longer available); format: in vivo, rat
Text: II. Extinction Phase: In this phase, the drug ceases to be available to the rats. During the extinction session, the animal learns, suddenly, that the drug can no longer be obtained by pressing the lever, which directs the rat toward an initial impulse of drug seeking. During the extinction session, one estimates the degree of the irrepressible desire of the rat for the drug (craving). After repeated extinction sessions, animals learn to reduce lever pressing and are ready for relapse testing.
Training was conducted in Skinner cages. Rats were trained to tap a lever to obtain saccharose. […] Once the training to obtain saccharose was complete, the rats had access to food ad libitum during the rest of the procedure. An intravenous catheter was subsequently implanted in the jugular vein. The catheter passed underneath the skin to reach the shoulder of the animal, where it was secured with a surgical gauze.
After 3-4 days of recovery, the animals were subjected, in the Skinner cages, to daily sessions of intravenous self-administration of 0.5 mg/kg doses of cocaine each time that they pressed an active lever. […] When this second lever was pressed by the animal, no drug was administered. The self-administration sessions lasted for 2 hours a day, 5 days a week, for at least six weeks.
The third self-administration protocol required the animals to press the lever five times to obtain the cocaine reinforcement.
Rats that succeeded in learning to self-administer the drug according to all three protocols described above were selected to test out the efficiency of the treatment with H3 histaminergic agonists in the extinction and relapse phases.
Drug craving, in this particular case cocaine craving, associated with the unexpected commencement of the extinction phase was studied once the animals had been self-administering the drug daily for at least six weeks.
The experiments began with the self-administration of cocaine for one hour. After this initial self-administration, the rats were divided into two groups. […]

[2] = tested on: cocaine self-administration; test: Same protocol with lever pressing rewarded with drug during the second hour (resumption of self-administration); format: in vivo, rat
Protocol: In order to differentiate the drug seeking from the reward phenomenon, the same protocol as described above was used, with the proviso that the pressing of the lever was rewarded with drug during the second hour. In the control experiments, when the rats were treated with saline solution, a relatively stable pressing of the lever over the course of time was observed (FIG. 3).
These same rats, days afterwards, were subjected in random order to treatment with saline solution or imetit in doses of 10 mg/kg. After these treatments, the rats recovered stability by means of three sessions of self-administration of drug. […] This decrease was significant for the first 40 minutes of the self-administration period, as compared to the control rats that were pretreated with a saline solution. Thus, over the course of time, the desire for the drug reappeared.

[3] = tested on: reinforcement produced by cocaine; test: Reinforcement phase: cocaine self-administration dose/response; format: in vivo, rat; settings: rats
[4] = tested on: relapse into cocaine seeking; test: Relapse phase: rehabilitation test, relapse induced by a single dose of cocaine; format: in vivo, rat; settings: rats
Text: III. Relapse Phase: The relapse phase is studied by using a rehabilitation test. In this phase, the desire of the rats for the drug is again induced by the administration of a single dose of drug. At this instant, the rat again feels the desire to obtain the drug, and so it again begins to press on the lever to obtain the drug, but the drug is not available to the animal.
The behavior of the rats was also studied during the relapse phase, after the animals had gone through the extinction phase. In the extinction phase, the animals received no reward (dose of cocaine) when they pressed the lever. After a minimum of six extinction sessions, lasting 2 hours each session, carried out on consecutive days, the lever-pressing behavior of the rats diminished at least 20 times in comparison to the start of the extinction sessions.
When the number of times that the rats pressed the lever decreased, the animals were subjected to 4 hour rehabilitation sessions (i.e., relapse sessions). These rehabilitation sessions consisted initially of extinction sessions of 3 hours, followed by the automatic release, by an injection, of a saline solution or different doses of cocaine. During the fourth hour, the behavior of the animals was studied in regard to the number of times that they pressed the lever after the administration of the different doses of cocaine (0 mg/kg, 0.5 mg/kg and 2 mg/kg). The number of times that the lever was pressed increased in proportion to the dose of cocaine administered (cocaine at 0.5 mg/kg or 2 mg/kg administered intravenously, or saline in controls) (FIG. 8). However, this increase in the number of times that the animals pressed the lever was not rewarded with the administration of more cocaine. The number of times that the rats pressed the lever was indicative of the rat's need to find the drug. Even so, the pressing of the lever was not rewarded with more cocaine, which differentiates this stage from that corresponding to self-administration. […]

| SMILES | reinforcing effects of methamphetamine [1] | tapping of the lever in the first 20 minutes of extinction (cocaine craving; imetit 3 mg/kg i.v. single dose, vs control rats) | latency (time until the rats pressed the lever for the first time) at start of extinction (cocaine craving; imetit 10 mg/kg i.v. single dose, vs control) | impulsiveness in tapping the lever to obtain reward in the first 20 minutes of extinction (cocaine craving; imetit 10 mg/kg i.v. single dose, vs control rats) | latency (time until first lever press) on resumption of self-administration ([2]; imetit 10 mg/kg i.v. pretreatment, vs control, rats) | decrease in number of times the rats tapped the lever during the start of the self-administration phase ([2]; imetit 10 mg/kg pretreatment, vs saline) | period of the self-administration phase over which the decrease in lever tapping was significant ([2]; imetit 10 mg/kg pretreatment, vs saline, rats) | tendency to seek cocaine (self-injections in 2 hours) ([3]; imetit 3 mg/kg single dose one hour before reinforcement, even at 0.03 mg/kg cocaine) | lever pressing after relapse induced by a single dose of cocaine ([4]; imetit 3 mg/kg one hour before, cocaine 0.5 mg/kg, vs saline) | reinforcement produced by cocaine (self-injections in 2 hours) ([3]; thioperamide 3 mg/kg s.c. one hour before, cocaine 0-1.0 mg/kg per injection) | lever pressing after relapse induced by a reminder dose of cocaine ([4]; thioperamide 3 mg/kg s.c. or 6 mg/kg, one hour before, cocaine 0.5 or 2 mg/kg) |
| --- | --- | --- | --- | --- | --- | --- | --- | --- | --- | --- | --- |
| NC(=NCc1ccc(Cl)cc1)SCCCc1cnc[nH]1 [clobenpropit] | potentiate the reinforcing effects |  |  |  |  |  |  |  |  |  |  |
| N=C(N)SCCc1cnc[nH]1 [imetit] |  | did not cause a significant reduction | significantly increased; also recorded: increase in latency | significantly diminished | significantly increased | approximately 50% | 40 min | diminished the tendency to seek cocaine; also recorded: self-administer less cocaine | caused a decrease in the pressing on the lever; also recorded: diminished significantly |  |  |
| S=C(NC1CCCCC1)N1CCC(c2cnc[nH]2)CC1 [thioperamide] | potentiate the reinforcing effects |  |  |  |  |  |  |  |  | no significant increase | did not potentiate the rehabilitation; also recorded: does not produce a significant decline |

Reference: patent US20110130425A1, “Use of H3 Histaminergic Agonists for the Treatment of Addiction to Drugs of Abuse” (priority 2009, published 2011)
